Reference: US20230057130A1, “FORMULATIONS OF 19-NOR C3,3-DISUBSTITUTED C21-N-PYRAZOLYL STEROID AND METHODS OF USE THEREOF” (priority 2020, published 2023)
Values after ≈ are worked out from the molar mass of the structure shown. Values joined by “and” are separate entries in the source; they are usually repeats but may differ in a detail not shown here. Equal values may be shown once. Read-outs that look alike come from different tables or passages of the source.

Tests used:
[1] = Particle size distribution by laser diffraction (Malvern Mastersizer 2000); format: physicochemical; details: for Particle Size D10 / Particle Size D50 / Particle Size D90: laser diffraction
From the text: As used herein, the term “particle size” or “particle size distribution (PSD)” when referring to the compound of formula (I) is a list of values that defines the relative amount, typically by mass or volume, of particles present according to size. The distribution data may be reported as cumulative distributions and/or as density distributions by volume or mass such as D(v, 0.1), D(v, 0.5) and D(v, 0.9). In various embodiments, the particle size of a compound of formula (I) may be measured using laser diffraction techniques (e.g., dispersing particles in a sample and illuminating the sample in a collimated laser-beam by scattering light over a range of angles). The large particles generate a high scattering intensity at relatively narrow angles to the incident beam, while the smaller particles produce a lower intensity signal but at much wider angles. Using an array of detectors, laser-diffraction analyzers record the pattern of scattered light produced by the sample. With the application of an appropriate model of light behavior the particle-size distribution of the sample can be determined from the scattering data, via a deconvolution step.
The particle size distribution of Compound 1 was measured using a laser diffraction method. A sample of Compound 1 was either dispersed in water or wetted and dispersed in 0.2% w/v Tween 80 in water to a final concentration spanning approximately 2.5 to 60 mg/mL. Using a Malvern Mastersizer 2000 with a Hydro 2000S sample dispersion unit the obscuration was adjusted to between 10 and 30%. The stir speed was adjusted to 2250-2500 rpm, pre-measurement delay to approximately 30 s, sample measurement time to around 10-15 s, background measurement time to around 10-15 s and the particle shape assumed to be irregular. The samples were at a concentration between 0.0032-0.0044% vol and had specific surface area between 1.65 and 2.10 m^2/g, a surface weighted mean between 2.87 and 3.64 μm, and a volume weighed mean between 3.62 and 4.67 μm. The measurements were obtained using the Mie scattering model (material refractive index=1.520, dispersant refractive index=1.330, absorption=0.001 or 0.1) with normal sensitivity.

[2] = Pharmacokinetic profile of Form C of Compound 1 (micronized and un-micronized) in rat, oral gavage; format: in vivo; details: male Sprague-Dawley rats, oral gavage 15 mg/kg; for AUClast / Cmax / Tmax: suspended in 2% aqueous PVP-VA, 15 mg/kg
Protocol: Two groups, each with three male Sprague-Dawley rats, received an oral gavage dose of Compound 1 (un-micronized Form C or micronized Form C) suspended in 2% aqueous PVP-VA at a concentration and volume intended to achieve a target dose level of 15 mg/kg.
Serial blood samples were collected from each animal at 0.25, 0.5, 1, 2, 4, 6, 8 and 24 hours after dosing. Blood samples, which were collected into tubes containing K2EDTA, were processed for plasma. Plasma samples were analyzed for Compound 1 by LC-MS/MS. Non-compartmental pharmacokinetic parameter estimates were calculated from the plasma concentration-time data for each animal. […] In Table 8 the subscripts to AUC last and inf refer to that AUC to the last sampling time point and extrapolated to infinite time, respectively.

[3] = Solubility of the compound of formula (I) in aqueous media; format: physicochemical
From the text: The compound of formula (I) belongs in the high permeability, poor solubility drug classification (BCS 2) described in the Biopharmaceutics Classification System (BCS). In the improved widely accepted Developability Classification System (DCS) discussed by Butler and Dressman, the high permeability low solubility category is further divided into two classifications. Specifically, the ratio of the dose to the solubility of the drug in FaSSIF can be used to predict the extent of human absorption. Class 2a describes compounds that have good permeability and poor solubility with a smaller dose to solubility ratio. Class 2b describes compounds that have a higher dose to solubility ratio and likely will be incompletely absorbed unless the drug is formulated in an already solubilized form, and therefore might present a major challenge to the formulator. […] That is, even for a dose of 10 mg about only 1.2% of the dose of the drug may dissolve in a glass of water or FaSSIF. For Class 2b compounds the system predicts that particle reduction should have no impact on bioavailability. Martinez and Amidon offer: “In the case of solubility-limited absorption particle size exerts minimal effect on the fraction of drug absorbed. In this situation, fraction of drug absorbed can only be improved by enhancing drug solubility (e.g., via inclusion of surfactants in the drug formulation.) Conversely particle size exerts its greatest effect when solubility is not a problem.” (Martinez and Amidon; J. Clin. Pharmacol.; 2002; 42; 620-643). In light of the very large […] for the compound of formula (I), oral absorption of the compound of formula (I) is solubility limited, and reduction of particle size should not affect its bioavailability.

[4] = lot used for 8 kg blend batch, 20 mg dose strength
[5] = lot used for 12 kg blend batch, 30 mg dose strength
[6] = lot used for 34.7 kg blend batch, 20 mg dose strength
[7] = lot used for 52 kg blend batch, 30 mg dose strength

Row | Structure (SMILES) | Particle Size D10 [1] [μm] | Particle Size D50 [1] | Particle Size D90 [1] | also measured
1 | C[C@@]1(O)CC[C@H]2[C@H](CC[C@@H]3[C@@H]2CC[C@]2(C)[C@@H](C(=O)Cn4cc(C#N)cn4)CC[C@@H]32)C1 [Un-micronized Form C of Compound 1b] | 3.2 | 14.7 μm | 33.6 μm | 
2 | C[C@@]1(O)CC[C@H]2[C@H](CC[C@@H]3[C@@H]2CC[C@]2(C)[C@@H](C(=O)Cn4cc(C#N)cn4)CC[C@@H]32)C1 [Un-micronized Form C of Compound 1] |  |  |  | AUClast [2]: 0.979 µg·h/mL; Cmax [2]: 0.0836 µg/mL; Tmax ([2]; male, Sprague-Dawley, rat, plasma, po, read-out: Tmax): 6.67 h; AUC(0-inf) ([2]; rat, plasma, extrapolated to infinite time): 0.854 µg·h/mL
3 | C[C@@]1(O)CC[C@H]2[C@H](CC[C@@H]3[C@@H]2CC[C@]2(C)[C@@H](C(=O)Cn4cc(C#N)cn4)CC[C@@H]32)C1 [Compound 1, 1-(2-((3R,5R,8R,9R,10S,13S,14S,17S)-3-hydroxy-3,13-dimethylhexadecahydro-1H-cyclopenta[a]phenanthren-17-yl)-2-oxoethyl)-1H-pyrazole-4-carbonitrile] |  |  |  | solubility in aqueous media [3]: practically insoluble; ratio of the dose to solubility in FaSSIF ([3]; 10 mg dose): greater than 10,000; ratio of the dose to solubility in FaSSIF ([3]; 20 mg dose): > 20,000; ratio of the dose to solubility in FaSSIF ([3]; 30 mg dose): > 30,000; ratio of the dose to solubility in FaSSIF ([3]; 90 mg dose): > 90,000; ratio of the dose to solubility in FaSSIF ([3]; 100 mg dose): > 100,000; part of the dose that may dissolve in a glass of water or FaSSIF ([3]; dose of 10 mg): ~1.2%; Biopharmaceutics Classification System (BCS) classification ([3]; high permeability, poor solubility): BCS 2; solubility ([3]; water): 0.8 to 3 µg/mL (≈ 1.95 to 7.32 µM)
4 | C[C@@]1(O)CC[C@H]2[C@H](CC[C@@H]3[C@@H]2CC[C@]2(C)[C@@H](C(=O)Cn4cc(C#N)cn4)CC[C@@H]32)C1 [Un-micronized Form C of Compound 1d] | 5.6 | 16.2 μm | 37.7 μm | 
5 | C[C@@]1(O)CC[C@H]2[C@H](CC[C@@H]3[C@@H]2CC[C@]2(C)[C@@H](C(=O)Cn4cc(C#N)cn4)CC[C@@H]32)C1 [Micronized Form A of Compound 1] | 1.5 | 4.2 μm | 11.1 μm | 
6 | C[C@@]1(O)CC[C@H]2[C@H](CC[C@@H]3[C@@H]2CC[C@]2(C)[C@@H](C(=O)Cn4cc(C#N)cn4)CC[C@@H]32)C1 [Micronized Form C of Compound 1c] | 1.1 | 2.7 μm | 5.4 μm | 
7 | C[C@@]1(O)CC[C@H]2[C@H](CC[C@@H]3[C@@H]2CC[C@]2(C)[C@@H](C(=O)Cn4cc(C#N)cn4)CC[C@@H]32)C1 [Un-micronized Form C of Compound 1a] | 3.1 | 11.8 μm | 27.1 μm | 
8 | C[C@@]1(O)CC[C@H]2[C@H](CC[C@@H]3[C@@H]2CC[C@]2(C)[C@@H](C(=O)Cn4cc(C#N)cn4)CC[C@@H]32)C1 [Micronized Form C of Compound 1] |  | 3.5 μm and 3.2 μm and 4.1 μm and 3.7 μm | 6.6 μm and 6.1 μm and 8.0 μm and 8.9 μm | Particle Size Distribution D10 [1, 4]: 1.7; Particle Size Distribution D50 [1, 4]: 3.2; Particle Size Distribution D90 [1, 4]: 6.1; Particle Size Distribution D10 [1, 5]: 1.7; Particle Size Distribution D50 [1, 5]: 3.2; Particle Size Distribution D90 [1, 5]: 6.1; Particle Size Distribution D10 [1, 6]: 1.8; Particle Size Distribution D50 [1, 6]: 3.3; Particle Size Distribution D90 [1, 6]: 6.5; Particle Size Distribution D10 [1, 7]: 2.1; Particle Size Distribution D50 [1, 7]: 4.1; Particle Size Distribution D90 [1, 7]: 8.0; AUClast [2]: 3.647 µg·h/mL; Cmax [2]: 0.308 µg/mL; Tmax [2]: 6.00 h
9 | C[C@@]1(O)CC[C@H]2[C@H](CC[C@@H]3[C@@H]2CC[C@]2(C)[C@@H](C(=O)Cn4cc(C#N)cn4)CC[C@@H]32)C1 [Micronized Form C of Compound 1b] | 0.8 | 2.1 μm | 5.2 μm | 
10 | C[C@@]1(O)CC[C@H]2[C@H](CC[C@@H]3[C@@H]2CC[C@]2(C)[C@@H](C(=O)Cn4cc(C#N)cn4)CC[C@@H]32)C1 [Un-micronized Form C of Compound 1c] | 3.6 | 16.0 μm | 35.5 μm | 
11 | C[C@@]1(O)CC[C@H]2[C@H](CC[C@@H]3[C@@H]2CC[C@]2(C)[C@@H](C(=O)Cn4cc(C#N)cn4)CC[C@@H]32)C1 [Micronized Form C of Compound 1a] | 0.9 | 2.4 μm | 6.1 μm | 
12 | C[C@@]1(O)CC[C@H]2[C@H](CC[C@@H]3[C@@H]2CC[C@]2(C)[C@@H](C(=O)Cn4cc(C#N)cn4)CC[C@@H]32)C1 [Micronized Form C of Compound 1d] | 1.0 | 2.4 μm | 4.6 μm | 
